Consider 41 compounds from patent US9023844B2, “Heterocyclylpyri (mi) dinylpyrazole as fungicidals” (Bayer Intellectual Property GmbH, priority 2011, dated 2015).

By LogP is commonly meant a log measure of how a compound divides between an organic and an aqueous phase.

The data set is described as follows: Determination of log P values by HPLC on a reverse phase column (C18), EEC-Directive 79/831 Annex V.A8 (Methods A, B, C). The data set is classed as physicochemical. Conditions: for chromatographic logP: reverse phase C18 HPLC column. On the procedure: (§1) Note on the determination of the log P values and mass detection: The stated log P values were determined in accordance with EEC-Directive 79/831 Annex V.A8 by HPLC (High Performance Liquid Chromatography) on a reverse phase column (C18). Agilent 1100 LC system; 50*4.6 Zorbax Eclipse Plus C18 1.8 micron; eluent A: acetonitrile (0.1% formic acid); eluent B: water (0.09% formic acid); linear gradient from 10% acetonitrile to 95% acetonitrile in 4.25 mins, then 95% acetonitrile for a further 1.25 mins; oven temperature 55° C.; flow rate: 2.0 mL/min. The mass detection was effected with an Agilend MSD system.
as §1, with “HP1100;” for “Agilent 1100 LC system;”, “(0.08%” for “(0.09%”, “5%” for “10%”, “1.70 min,” for “4.25 mins,”, “1.00 min;” for “1.25 mins;”, “the Micronass ZQ2000 mass detector from Waters.” for “an Agilend MSD system.”
Note on the determination of the log P values and mass detection: The stated log P values were determined in accordance with EEC-Directive 79/831 Annex V.A8 by UPLC (Ultra Performance Liquid Chromatography) on a reverse phase column (C18). HP1100; 50*2.1 Zorbax Eclipse Plus C18 1.8 micron; eluent A: acetonitrile (0.09% formic acid); eluent B: water (0.1% formic acid); linear gradient from 10% A to 95% A in 3.25 min; oven temperature 40° C.; flow rate: 0.8 mL/min. The mass detection was effected with the LCT Premier or SQD mass detector from Waters.

The mark [1] stands for this setting: pH 2.3, intermediates of formula [II], HPLC, reverse phase C18, read-out: LogP (pH 2.3).
The mark [2] stands for this setting: pH 2.3, intermediates of formula [IV] and [XXXVII], HPLC, reverse phase C18, read-out: LogP (pH 2.3).
Where [3] appears, read: pH 2.7, values in the synthesis examples, HPLC, reverse phase C18, read-out: log P (pH 2.7).
The mark [4] stands for this setting: pH 2.3, intermediates of formula [VI], HPLC, reverse phase C18, read-out: LogP (pH 2.3).
Setting [5] is: Method B (HPLC, reverse phase C18).
Where [6] appears, read: Method C (HPLC, reverse phase C18).

Read-outs that look alike come from different tables or passages of the source.

With `C[Si]1(C)COc2c(-c3ccnc(N)c3)c(-c3ccc(F)cc3)nn2C1` [[II-4], 4-[7-(4-fluorophenyl)-3,3-dimethyl-3,4-dihydro-2H-pyrazolo[5,1-b][1,3,5]oxazasilin-8-yl]pyridin-2-amine], the chromatographic logP under setting [1] was found to be 1.66.

As for `CC1Oc2c(Br)c(-c3ccc(F)cc3)nn2C1C` (stereo not shown) [[IV-8], 7-bromo-6-(4-fluorophenyl)-2,3-dimethyl-2,3-dihydropyrazolo[5,1-b][1,3]oxazole], the chromatographic logP came to 3.39 under setting [2]; 3.39 (pH 2.7, major isomer of the diastereoisomer mixture, read-out: Log P (pH 2.7), major isomer); 3.46 (pH 2.7, minor isomer of the diastereoisomer mixture, read-out: Log P (pH 2.7), minor isomer).

For `C[C@@H]1C[C@H](C)n2nc(-c3ccc(F)cc3)c(Br)c2O1` (racemic) [[IV-9b], rac-cis-3-bromo-2-(4-fluorophenyl)-5,7-dimethyl-6,7-dihydro-5H-pyrazolo[5,1-b][1,3]oxazine], the chromatographic logP runs as follows: under setting [2], 3.68; under setting [3], 3.68.

Take `CC1CCOc2cc(-c3ccc(F)cc3)nn21` (stereo not shown) [[VI-4], 2-(4-fluorophenyl)-7-methyl-6,7-dihydro-5H-pyrazolo[5,1-b][1,3]oxazine]: the chromatographic logP stood at 2.65 under setting [4] and 2.65 under setting [3].

As for `Nc1cc(-c2c(-c3ccccc3)nn3c2OCCC3)ccn1` [[II-1], 4-(2-phenyl-6,7-dihydro-5H-pyrazolo[5,1-b][1,3]oxazin-3-yl)pyridin-2-amine], the chromatographic logP reads like this: under setting [1], 0.87; under setting [3], 0.87.

`O=C(Cn1cncn1)Nc1cc(-c2c(-c3ccc(F)cc3)nn3c2OCCC3)ccn1` [Example 137] returned a LogP under setting [5] of 1.32.

For the compound `Fc1ccc(-c2nn3ccoc3c2Br)cc1` [[IV-a-3], 7-bromo-6-(4-fluorophenyl)pyrazolo[5,1-b][1,3]oxazole], the chromatographic logP by setting is: under setting [2], 3.07; under setting [3], 3.07.

`CCN1CCCn2nc(-c3ccc(F)cc3)c(-c3ccnc(NCc4ccccc4)c3)c21` [Example 97] gave a LogP under setting [6] of 1.86.

For `Nc1cc(-c2c(-c3ccccc3)nn3c2NCCC3)ccn1` [[II-b-1], 4-(2-Phenyl-4,5,6,7-tetrahydropyrazolo[1,5-a]pyrimidin-3-yl)pyridin-2-amine], the chromatographic logP under setting [1] was determined as 1.05 and the chromatographic logP under setting [3] amounted to 1.05.

`C[Si]1(C)COc2c(Br)c(-c3cccs3)nn2C1` [[IV-12], 8-bromo-3,3-dimethyl-7-(2-thienyl)-3,4-dihydro-2H-pyrazolo[5,1-b][1,3,5]oxazasiline]: the chromatographic logP under setting [2] stood at 3.58 and the chromatographic logP under setting [3] was determined as 3.58.

With `CCC(=O)Nc1cc(-c2c(-c3ccc(F)cc3)nn3c2OCC(C)(C)C3)ccn1` [Example 110], the LogP under setting [6] was determined as 2.00.

On to `CCC(=O)Nc1cc(-c2c(-c3ccccc3)nn3c2N(C(=O)CC)CCC3)ccn1` [Example 78], for which the LogP under setting [6] came to 1.45.

For the compound `Brc1c(-c2ccccc2)nn2cccnc12` [[XXXVII-1], 3-Bromo-2-phenylpyrazolo[1,5-a]pyrimidine], the chromatographic logP worked out at 2.63 under setting [2] and 2.63 under setting [3].

With `O=C(Nc1cc(-c2c(-c3ccc(F)cc3)nn3c2OCCC3)ccn1)C1(C2CC2)CC1` [Example 129], the LogP under setting [5] was 2.46.

In the case of `Fc1ccc(-c2cc3n(n2)CCS3)cc1` [[VI-6], 6-(4-fluorophenyl)-2,3-dihydropyrazolo[5,1-b][1,3]thiazole], the chromatographic logP by setting is: under setting [4], 2.53; under setting [3], 2.53.

For the compound `CC1(C)COc2cc(-c3ccc(F)cc3)nn2C1` [[VI-10], 2-(4-fluorophenyl)-6,6-dimethyl-6,7-dihydro-5H-pyrazolo[5,1-b][1,3]oxazine], the chromatographic logP runs as follows: under setting [4], 2.96; under setting [3], 2.96.

Regarding `Fc1ccc(-c2nn3c(c2Br)OCC(F)(F)C3)cc1` [[IV-7], 3-bromo-6,6-difluoro-2-(4-fluorophenyl)-6,7-dihydro-5H-pyrazolo[5,1-b][1,3]oxazine], the chromatographic logP is, setting by setting: under setting [2], 3.3; under setting [3], 3.3.

For the compound `O=C(Nc1cc(-c2c(-c3ccc(F)cc3)nn3c2OCCC3)ccn1)c1cncc(F)c1` [Example 114], the LogP under setting [5] is given as 1.96.

Turning to `Fc1ccc(-c2nn3c(c2Br)OCCC3)cc1` [[IV-2], 3-bromo-2-(4-fluorophenyl)-6,7-dihydro-5H-pyrazolo[5,1-b][1,3]oxazine], the chromatographic logP was determined as 2.86 under setting [2] and 2.86 under setting [3].

Take `Nc1cc(-c2c(-c3ccc(F)cc3F)nn3c2OCCC3)ccn1` [[II-3], 4-[2-(2,4-difluorophenyl)-6,7-dihydro-5H-pyrazolo[5,1-b][1,3]oxazin-3-yl]pyridin-2-amine]: the chromatographic logP runs as follows: under setting [1], 1.01; under setting [3], 1.01.

On to `Cc1occc1C(=O)Nc1cc(-c2c(-c3ccc(F)cc3)nn3c2OCCC3)ccn1` [Example 126], for which the LogP under setting [5] is recorded as 1.96.

For the compound `Fc1ccc(-c2cc3ncccn3n2)cc1` [[XXXVIII-1], 2-(4-Fluorophenyl)pyrazolo[1,5-a]pyrimidine], the chromatographic logP under setting [3] came out at 2.17.

`CCC(=O)Nc1cc(-c2c(-c3ccc(F)cc3)nn3c2N(C(=O)CC)CCC3)ccn1` [Example 91] yielded a LogP under setting [6] of 1.62.

`Fc1ccc(-c2nn3c(c2Br)OCC3)cc1` [[IV-4], 7-bromo-6-(4-fluorophenyl)-2,3-dihydropyrazolo[5,1-b][1,3]oxazole]: the chromatographic logP by setting is: under setting [2], 2.69; under setting [3], 2.69.

Regarding `Oc1cc(-c2ccc(F)cc2F)n[nH]1` [[VII-3], 3-(2,4-difluorophenyl)-1H-pyrazol-5-ol], under setting [3], the chromatographic logP was 1.25.

Turning to `CCC(C)CC(C)C(=O)Nc1cc(-c2c(-c3ccc(F)cc3)nn3c2OCCC3)ccn1` (stereo not shown) [Example 127], the LogP under setting [5] came to 2.65.

Take `CC(=O)Nc1cc(-c2c(-c3ccc(F)cc3)nn3c2OCC(C)(C)C3)ccn1` [Example 109]: the LogP under setting [6] came out at 1.75.

For the compound `O=C(CC1CCCOC1)Nc1cc(-c2c(-c3ccc(F)cc3)nn3c2OCCC3)ccn1` (stereo not shown) [Example 124], under setting [5], the LogP came to 1.57.

For `CC1(C)COc2c(Br)c(-c3ccc(F)cc3)nn2C1` [[IV-10], 3-bromo-2-(4-fluorophenyl)-6,6-dimethyl-6,7-dihydro-5H-pyrazolo[5,1-b][1,3]oxazine], the chromatographic logP worked out at 3.63 under setting [2] and 3.63 under setting [3].

For `Nc1cc(-c2c(-c3ccc(F)cc3)nn3c2OCCC3)ccn1` [[II-2], 4-[2-(4-fluorophenyl)-6,7-dihydro-5H-pyrazolo[5,1-b][1,3]oxazin-3-yl]pyridin-2-amine], the chromatographic logP amounted to 0.95 under setting [1] and 0.95 under setting [3].

Compound `O=C(Nc1cc(-c2c(-c3ccc(F)cc3)nn3c2OCCC3)ccn1)c1ccc(F)s1` [Example 130] yielded a LogP under setting [5] of 2.42.

Consider `O=C(Nc1cc(-c2c(-c3ccc(F)cc3)nn3c2OCCC3)ccn1)C1CCSCC1` [Example 128], for which, under setting [5], the LogP was found to be 1.83.

`O=C(Nc1cc(-c2c(-c3ccc(F)cc3F)nn3c2OCCC3)ccn1)C1(Cl)CC1` [Example 50] displayed a LogP under setting [5] of 2.84.

With `CC(C)C(=O)Nc1cc(-c2c(-c3ccc(F)cc3)nn3c2OCC(C)(C#N)C3)ccn1` (stereo not shown) [Example 107], the LogP under setting [6] is 1.94.

On to `CC1(C#N)COc2cc(-c3ccc(F)cc3)nn2C1` (stereo not shown) [[VI-11], 2-(4-fluorophenyl)-6-methyl-6,7-dihydro-5H-pyrazolo[5,1-b][1,3]oxazine-6-carbonitrile], for which the chromatographic logP runs as follows: under setting [4], 2.39; under setting [3], 2.39.

In the case of `CC(C)C(=O)Nc1cc(-c2c(-c3ccc(F)cc3)nn3c2OCC(C)(C)C3)ccn1` [Example 111], under setting [6], the LogP came to 2.23.

Take `CC1(C(=O)Nc2cc(-c3c(-c4ccc(F)cc4)nn4c3OCCC4)ccn2)CCCC1` [Example 117]: under setting [5], the LogP turned out to be 2.23.

Regarding `Fc1ccc(-c2cc3n(n2)CCCO3)cc1` [[VI-2], 2-(4-fluorophenyl)-6,7-dihydro-5H-pyrazolo[5,1-b][1,3]oxazine], the chromatographic logP under setting [4] was 2.18 and the chromatographic logP under setting [3] came to 2.18.

Turning to `CC(C)[C@H](NC=O)C(=O)Nc1cc(-c2c(-c3ccc(F)cc3)nn3c2OCCC3)ccn1` [Example 138], the LogP under setting [5] is 1.6.

Turning to `CC(C)(F)C(=O)Nc1cc(-c2c(-c3ccc(F)cc3)nn3c2OCCC3)ccn1` [Example 115], under setting [5], the LogP came out at 2.38.

Consider `Nc1cc(-c2c(-c3ccccc3)nn3cccnc23)ccn1` [[II-a-1], 4-(2-Phenylpyrazolo[1,5-a]pyrimidin-3-yl)pyridin-2-amine], for which the chromatographic logP under setting [1] came to 0.98 and the chromatographic logP under setting [3] amounted to 0.98.
